In ChEMBL document CHEMBL3045842, “Antioxidant and -glucosidase inhibitory compounds from Pimpinella candolleana Wight et Arn” (Med Chem Res, 2012):
In brackets after ≈: the same amount, converted by molar mass.

Key:
[1] = target: Lysosomal alpha-glucosidase (Homo sapiens) (UniProt P10253); assay: Inhibition of alpha-glucosidase (unknown origin) using para-nitrophenyl-alpha-D-glucopyranoside as substrate incubated at 50 to 300 ug/ml for 15 min prior to substrate addition measured after 15 min by spectrophotometric analysis
[2] = tested on: Radical scavenging activity; assay: Antioxidant activity assessed as as DPPH radical scavenging activity after 30 min by spectrophotometry; assay type: functional
[3] = Antioxidant activity assessed as trolox equivalents of ferric reducing activity after 30 min by spectrophotometry; assay type: functional
[4] = Antioxidant activity assessed as ABTS radical scavenging activity after 10 min by spectrophotometry; assay type: functional

| SMILES | inhibition [1] [%] | IC50 [2] [µg/mL] | Activity [3] [µmol/g] | IC50 [4] [µg/mL] |
| --- | --- | --- | --- | --- |
| C[C@H]1O[C@H](O[C@H]2[C@H](O)[C@@H](O)[C@@H](O[C@H]3[C@H](O)[C@@H](O)C(O)O[C@@H]3CO)O[C@@H]2CO)[C@H](O)[C@@H](O)[C@@H]1N[C@H]1C=C(CO)[C@@H](O)[C@H](O)[C@H]1O (stereo not given in full) | 55.6 | – | – | – |
| O=c1cc(-c2ccc(O)c(O)c2)oc2cc(O)cc(O)c12 [LUTEOLIN] | 99.9 | 0.99 (≈ 3.46 µM) | – | – |
| Cc1cc(C(C)(C)C)c(O)c(C(C)(C)C)c1 [BUTYLATED HYDROXYTOLUENE] | – | 18.71 (≈ 84.9 µM) | 1580 | 6.64 (≈ 30.1 µM) |
| C[C@H]1[C@H](C)CC[C@]2(C(=O)O)CC[C@]3(C)C(=CC[C@@H]4[C@@]5(C)CC[C@H](O)C(C)(C)[C@@H]5CC[C@]43C)[C@H]12 | 97.6 | – | – | – |
| CCCOC(=O)c1cc(O)c(O)c(O)c1 [PROPYL GALLATE] | – | 3.96 (≈ 18.7 µM) | – | – |
| O=c1cc(-c2ccc(O)cc2)oc2cc(O)c([C@@H]3O[C@H](CO)[C@@H](O)[C@H](O)[C@H]3O)c(O)c12 | 76.8 | – | – | – |
| CC[C@H](/C=C/[C@@H](C)[C@H]1CC[C@H]2[C@@H]3CC=C4CC(OC(C)=O)CC[C@]4(C)[C@H]3CC[C@]12C)C(C)C (stereo not given in full) | 99.1 | – | – | – |
